Data: US6322789A, “HLA-restricted hepatitis B virus CTL epitopes” (Epimmune, Inc., priority 1995, dated 2001)
No end group written: not given here.

Key:
[1] = tested on: B10.D2 fibroblasts in the presence of NP 148-155 peptide; assay: CTL immunogenicity of modifications and formulations of PR8-NP 148-155 (Table I); type: in vivo, Balb/c mouse; settings: in words
Procedure: Three weeks after immunization splenocytes were removed and stimulated in vitro with the flu 147-155 peptide. CTL activity was assayed one week later using ^51 Cr-labeled B10.D2 fibroblasts as targets. Target cells were tested in the absence of antigen, in the presence of Flu 147-155 peptide or following infection with influenza PR8 virus.
^b = CTL immunogenicity of various modifications and formulations of NP
result obtained from spleen cells derived from a single Balb/c mouse and
# the effector to target ratio (E:T) required to induce 40% antigen
specific lysis of ^51 Cr labeled B10D2 target cells in the presence of
ND148-155 peptide; +++ E:T below 10:1; ++ E + T between 10 + 1 and […]

[2] = tested on: Jurkat A2-1/Kb target cells; Jy target cells; Jy cells transfected with HBV core; set-up: species or system HLA-A2-1/kb transgenic mice; settings: mouse, in vivo, sc
[3] = tested on: Jurkat A2.1/K^b target cells; assay: CTL lysis after restimulation of splenocytes from mice primed with HBV-loaded spleen cells (Example I); type: cell-based, A2.1/K^b transgenic mice (effector cells); settings: for representation of CTL epitopes: conclusion of Example I, FIGS. 1 and 2; for CTL lysis of Jurkat A2/K^b target cells: individual peptides, FIG. 1 panels E through H
[4] = tested on: Jurkat A2.1/K^b target cells; assay: CTL induction from splenocytes of mice primed subcutaneously with purified HBV in IFA (Example II); type: cell-based, A2.1/K^b transgenic mice (effector cells); settings: for ability to induce in vitro CTL from splenocytes of HBV-primed mice: FIGS. 3 and 4
[5] = tested on: Jurkat A2/K^b target cells; assay: In vivo HBc 18-27-specific CTL priming by CTL and T helper epitopes (Example IV); set-up: species or system HLA-A2.1/K^b transgenic mice; settings: for magnitude of HBc18-27-specific CTL activity relative to other immunogens: comparison in words; for requirement of prior T helper priming for CTL priming: without previous priming with 875.23 in CFA; for HBc18-27-specific CTL response: 100 μg subcutaneously, transgenic mice
Procedure: Animals were primed subcutaneously with 100 μg of 875.23 (T helper epitope) in Complete Freund's Adjuvant (CFA) followed 9 days later (subcutaneously) with […]. Splenocytes were removed 3 weeks later, cultured for 6 days in the presence of LPS-blasts that had been incubated with the CTL epitope (875.15), 100 μg for 2 hrs before being washed and added to the culture as a source of antigen presenting cells. The presence of HBc 18-27 (875.15)-specific CTL was determined using a standard 6 hr […] release assay with Jurkat A2.1/K^b cells as targets.
This example describes experiments which define the relative in vivo HBV-specific CTL priming efficiency of peptides expressing HBV CTL epitopes alone, CTL epitopes mixed with peptides containing T helper epitopes or CTL epitopes physically linked to T helper epitopes.
Nine days later each of the following peptides were injected subcutaneously into two unprimed and two helper-primed mice, 100 μg/mouse in incomplete Freund's adjuvant (IFA).
Three weeks after priming with the CTL epitope, splenocytes were in vitro restimulated with LPS blasts coated with HBc 18-27 (coating was achieved by incubating 30×10^6 LPS blasts with 100 μg of HBc18-27 in one ml of medium; after 1-2 hr at 37° C., the cells were washed). After 6 days, effector cells were assayed for lytic activity against ^51 Cr labelled Jurkat A2 /K^b target cells in the presence or absence of HBc18-27.

[6] = tested on: ovalbumin-specific CTL; settings: cited from earlier work
[7] = listed as linked peptides without spacer

(PAM)2 KSS-ISQAVHAAHAEINE-AAA-TYQRTRALV ({(PAM)2}-KSSISQAVHAAHAEINEAAATYQRTRALV) [Peptide 932.05]
comparison of constructs and formulations [1]: superior when injected in saline or Alum compared to all of the other combinations

(PAM)2 KSSISQAVHAAHAEINE-TYQRTRALV ({(PAM)2}-KSSISQAVHAAHAEINETYQRTRALV) [Peptide 932.04]
comparison of constructs and formulations [1]: superior when injected in saline or Alum compared to all of the other combinations

Ac-Gln-Tyr-Ile-Lys-Ala-Asn-Ser-Lys-Phe-Ile-Gly-Ile-Thr-Glu-Ala-Ala-Ala-Phe-Leu-Pro-Ser-Asp-Phe-Phe-Pro-Ser-Val-OH (Ac-QYIKANSKFIGITEAAAFLPSDFFPSV-OH) [Peptide 934.02]
CTL response specific for HBc 18-27 [2]: induction of a CTL response specific for HBc 18-27

Asn-Cys-Thr-Cys-Ile-Pro-Ile-Pro-Ser-Ser-Trp-Ala-Phe-Gly-Lys-Phe-Leu-Trp-Glu-Trp [Peptide 799.08]
CTL response and its MHC class I mediation [3]: induces a CTL response which is mediated by at least the MHC class I molecule HLA-A2 | representation of CTL epitopes [3]: clearly represent CTL epitopes | CTL lysis of Jurkat A2/K^b target cells [3]: induced CTL lysis of Jurkat A2 /K^b target cells above background

ISQAVHAAHAEINE-AAA-TYQRTRALV (ISQAVHAAHAEINEAAATYQRTRALV) [Peptide 932.03]
comparison of constructs and formulations [1]: superior to mixing the T helper+CTL (i.e., non-linked) and worked well in IFA, but not well in saline or Alum

ISQAVHAAHAEINE-TYQRTRALV (ISQAVHAAHAEINETYQRTRALV) [Peptide 932.02]
comparison of constructs and formulations [1]: superior to mixing the T helper+CTL (i.e., non-linked) and worked well in IFA, but not well in saline or Alum

LSPTVWLSVI [Peptide 884.02]
recognition of truncation peptides by CTL raised against the larger peptide [4]: recognized by the CTL raised against the larger epitopes | ability to induce in vitro CTL from splenocytes of HBV-primed mice [4]: clearly able to induce in vitro CTL

LSPTVWLSVIWMMWYWGPSL [Peptide 799.10]
representation of CTL epitopes [3]: defined as containing CTL epitopes | representation of CTL epitopes ([3]; listed as HBenv 349-368): clearly represent CTL epitopes | CTL lysis of Jurkat A2/K^b target cells [3]: induced CTL lysis of Jurkat A2 /K^b target cells above background | ability to induce in vitro CTL from splenocytes of HBV-primed mice [4]: clearly able to induce in vitro CTL

MGLKFRQLLW [Peptide 883.03]
recognition of truncation peptides by CTL raised against the larger peptide [4]: recognized by the CTL raised against the larger epitopes | ability to induce in vitro CTL from splenocytes of HBV-primed mice [4]: clearly able to induce in vitro CTL

NMGLKFRQLL [Peptide 883.02]
recognition of truncation peptides by CTL raised against the larger peptide [4]: recognized by the CTL raised against the larger epitopes | ability to induce in vitro CTL from splenocytes of HBV-primed mice [4]: clearly able to induce in vitro CTL

TPPAYRPPNAPILAAAFLPSDFFPSV-NH2 [Peptide 902.02]
magnitude of HBc18-27-specific CTL activity relative to other immunogens [5]: greatest HBc18-27 (875.15)-specific CTL activity was detected | magnitude of HBc18-27-specific CTL activity relative to other immunogens ([5]; listed as T helper and CTL HBV peptides were linked by a Ala-Ala-Ala spacer): specific CTL activity greater than induction of specific CTL activity with the linked peptides without spacer | magnitude of HBc18-27-specific CTL activity relative to other immunogens ([5]; listed as T helper and CTL epitopes via an alanine-alanine-alanine spacer): specific CTL activity greater than that detected by linking the T helper and CTL determinants alone | requirement of prior T helper priming for CTL priming [5]: previous priming of helper T cells was not required

TPPAYRPPNAPILFLPSDFFPSV-NH2 [Peptide 902.01]
HBc18-27-specific CTL response [5]: HBc-specific (875.15) CTL activity was detected | HBc18-27-specific CTL response [5, 7]: induce specific CTL priming of animals in all animals studied | animals with HBc18-27-specific CTL response ([5]; 100 μg/mouse in IFA subcutaneously): 100% | magnitude of HBc18-27-specific CTL activity relative to other immunogens ([5]; listed as T helper epitope linked to the CTL epitope): greater than that detected when the epitopes were administered non-linked | magnitude of HBc18-27-specific CTL activity relative to other immunogens [5, 7]: at levels which were greater than when the CTL peptide and T helper peptide were administered unlinked | requirement of prior T helper priming for CTL priming [5]: previous priming of helper T cells was not required

Thr-Asn-Met-Gly-Leu-Lys-Phe-Arg-Gln-Leu-Leu-Trp-Phe-His-Ile-Ser-Cys-Leu-Thr-Phe [Peptide 802.03]
CTL response and its MHC class I mediation [3]: induces a CTL response which is mediated by at least the MHC class I molecule HLA-A2.1 | representation of CTL epitopes [3]: defined as containing CTL epitopes | representation of CTL epitopes ([3]; listed as HBc 91-110): clearly represent CTL epitopes | CTL lysis of Jurkat A2/K^b target cells [3]: induced CTL lysis of Jurkat A2 /K^b target cells above background | ability to induce in vitro CTL from splenocytes of HBV-primed mice [4]: clearly able to induce in vitro CTL

Thr-Pro-Pro-Ala-Tyr-Arg-Pro-Pro-Asn-Ala-Pro-Ile-Leu (TPPAYRPPNAPIL) [Peptide 875.23]
HBc18-27-specific CTL response [5]: no HBc18-27-specific CTL response is detected | HBc18-27-specific CTL response ([5]; listed as T helper peptide): did not induce HBc-specific CTL

ovalbumin: ovalbumin (OVA) in IFA
generation of CTL ([6]; i.v. or i.p.): generally does not lead to the generation of CTL | ovalbumin-specific CTL response ([6]; in IFA subcutaneously): induces an ovalbumin-specific CTL response in mice
